From patent US9617240B2 (TEIJIN PHARMA LIMITED, priority 2013, dated 2017)

molecular target: T1, oxidase type xanthine oxidase (derived from buttermilk) (Bos taurus, UniProt P80457); assay: Xanthine oxidase inhibitory activity (absorbance change at 290 nm); assay type: biochemical; settings: xanthine substrate, 100 mM phosphate buffer, absorbance at 290 nm for 5 minutes; read-out: Inhibitory Activity (50% inhibitory concentration with respect to oxidase type xanthine oxidase)
T1 construct: oxidase type xanthine oxidase (derived from buttermilk, supplied by Calbiochem Novabiochem Corp.); purchased Calbiochem Novabiochem Corp; host or cells: buttermilk (natural source)
Experimental: The xanthine oxidase inhibitory activity was measured for the compounds synthesized according to the above Examples.
After a test compound was dissolved in DMSO (manufactured by Sigma Co.) so that the concentration is 20 mM, the test compound was prepared and used at a desired concentration at the time of use.
The evaluation of the xanthine oxidase inhibitory activity of the compounds of the present invention was conducted by partially modifying the method described in the literature (Method Enzymatic Analysis, 1, 521-522, 1974). The present evaluation is based on the oxidase type xanthine oxidase inhibitory activity evaluation. That is, a xanthine (manufactured by Sigma Co.) solution prepared at 10 mM in advance using a 20 mM sodium hydroxide solution was adjusted to 30 μM using a 100 mM phosphate buffer solution, and 75 μL/well of each solution was added into a 96-well plate. Aliquots (1.5 μL/well) of each test sample, which was diluted with DMSO so that the concentration is 100 times the final concentration, were added into a 96-well plate, and after mixing, the absorbance at 290 nm was measured by a microplate reader SPECTRA MAX Plus 384 (manufactured by Molecular Devices, LLC). Subsequently, oxidase type xanthine oxidase (derived from buttermilk, supplied by Calbiochem Novabiochem Corp.) was prepared at 30.6 mU/mL using a 100 mM phosphate buffer solution and 73.5 μL/well of each solution was added. Immediately after mixing, the change in absorbance at 290 nm was measured for 5 minutes. The enzyme activity when DMSO was used instead of a test compound solution was defined as 100%, the inhibitory rate of the test compounds was calculated and the 50% inhibitory concentration with respect to oxidase type xanthine oxidase was calculated by fitting to the dose-response curve.
Note that the symbols (+, ++, +++) in the table represent inhibitory activity values as shown below.

T1 sequence (P80457 whole entry): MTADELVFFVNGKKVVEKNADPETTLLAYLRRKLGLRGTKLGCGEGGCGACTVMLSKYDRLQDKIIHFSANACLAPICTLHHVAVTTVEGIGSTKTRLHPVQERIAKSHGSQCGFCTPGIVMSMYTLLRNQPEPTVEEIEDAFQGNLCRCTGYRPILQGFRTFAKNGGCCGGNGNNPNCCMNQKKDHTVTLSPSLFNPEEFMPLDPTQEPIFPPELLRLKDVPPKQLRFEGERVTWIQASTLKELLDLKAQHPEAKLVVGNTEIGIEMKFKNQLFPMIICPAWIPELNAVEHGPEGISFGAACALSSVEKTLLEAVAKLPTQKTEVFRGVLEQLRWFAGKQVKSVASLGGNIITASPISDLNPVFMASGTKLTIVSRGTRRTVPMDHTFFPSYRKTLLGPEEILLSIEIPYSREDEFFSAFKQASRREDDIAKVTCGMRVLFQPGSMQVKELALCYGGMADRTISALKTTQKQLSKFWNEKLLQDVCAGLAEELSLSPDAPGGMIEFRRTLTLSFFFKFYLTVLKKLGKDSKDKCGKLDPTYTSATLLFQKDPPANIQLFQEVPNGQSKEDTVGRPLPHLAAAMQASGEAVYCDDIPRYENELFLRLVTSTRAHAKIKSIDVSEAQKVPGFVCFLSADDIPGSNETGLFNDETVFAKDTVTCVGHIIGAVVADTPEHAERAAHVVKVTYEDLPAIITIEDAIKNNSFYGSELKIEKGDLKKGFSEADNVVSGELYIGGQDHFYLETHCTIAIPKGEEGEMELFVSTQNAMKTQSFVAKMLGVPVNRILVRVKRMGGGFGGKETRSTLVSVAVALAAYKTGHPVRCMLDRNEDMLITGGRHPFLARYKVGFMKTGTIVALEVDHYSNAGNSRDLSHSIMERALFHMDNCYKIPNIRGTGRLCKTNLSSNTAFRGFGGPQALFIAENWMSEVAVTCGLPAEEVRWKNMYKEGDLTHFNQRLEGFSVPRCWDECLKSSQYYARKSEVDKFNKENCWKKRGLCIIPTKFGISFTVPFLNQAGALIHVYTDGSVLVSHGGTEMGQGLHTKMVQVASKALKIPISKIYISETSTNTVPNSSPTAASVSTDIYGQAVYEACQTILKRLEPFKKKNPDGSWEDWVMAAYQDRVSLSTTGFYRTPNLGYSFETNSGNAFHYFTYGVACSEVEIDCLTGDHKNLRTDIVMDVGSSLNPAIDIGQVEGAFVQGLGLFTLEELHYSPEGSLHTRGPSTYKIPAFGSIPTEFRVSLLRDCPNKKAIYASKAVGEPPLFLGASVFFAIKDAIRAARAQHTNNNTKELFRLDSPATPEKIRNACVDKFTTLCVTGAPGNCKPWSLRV

SMILES | IC50
N#Cc1cc(-n2cc(C(=O)O)cn2)ncc1-c1ccc2ccccc2c1 [Compound 57, 1-[4-cyano-5-(naphthalen-2-yl)pyridin-2-yl]-1H-pyrazole-4-carboxylic acid] | 1 to 5 nM
N#Cc1cc(-n2cc(C(=O)O)cn2)ncc1-c1ccccc1Cl [Compound 6, 1-[4-cyano-5-(2-chlorophenyl)pyridin-2-yl]-1H-pyrazole-4-carboxylic acid] | 1 to 5 nM
N#Cc1cc(-n2cc(C(=O)O)cn2)ncc1-c1ccc(N)cc1 [Compound 68, 1-[5-(4-aminophenyl)-4-cyanopyridine-2-yl]-1H-pyrazole-4-carboxylic acid] | 1 to 5 nM
N#Cc1cc(-n2cc(C(=O)O)cn2)ncc1-c1ccc(C(=O)N2CCOCC2)cc1 [Compound 70, 1-(4-cyano-5-{4-[(morpholine-4-yl)carbonyl]phenyl}pyridine-2-yl)-1H-pyrazole-4-carboxylic acid] | 1 to 5 nM
COc1ccc(F)c(-c2ncc(-n3cc(C(=O)O)cn3)cc2C#N)c1 [Compound 84, 1-[5-cyano-6-(2-fluoro-5-methoxyphenyl)pyridin-3-yl]-1H-pyrazole-4-carboxylic acid] | 5 to 10 nM
CSc1ccc(-c2cnc(-n3cc(C(=O)O)cn3)cc2C#N)cc1 [Compound 63, 1-{4-cyano-5-[4-(methylsulfanyl)phenyl]pyridin-2-yl}-1H-pyrazole-4-carboxylic acid] | 1 to 5 nM
CC(C)c1ccc(-c2cnc(-n3cc(C(=O)O)cn3)cc2C#N)cc1 [Compound 47, 1-[4-cyano-5-[4-(propane-2-yl)phenyl]pyridin-2-yl}-1H-pyrazole-4-carboxylic acid] | 1 to 5 nM
Cc1cc(-c2cnc(-n3cc(C(=O)O)cn3)cc2C#N)ccc1Cl [Compound 51, 1-[4-cyano-5-(4-chloro-3-methylphenyl)pyridin-2-yl]-1H-pyrazole-4-carboxylic acid] | 1 to 5 nM
N#Cc1cc(-n2cc(C(=O)O)c(N)n2)ncc1-c1ccc(F)cc1 [Compound 99, 3-amino-1-[4-cyano-5-(4-fluorophenyl)pyridin-2-yl]-1H-pyrazole-4-carboxylic acid] | 1 to 5 nM
N#Cc1cc(-n2cc(C(=O)O)cn2)ncc1-c1ccc(OCc2ccccc2)cc1 [Compound 66, 1-{5-[4-(benzyloxy)phenyl]-4-cyanopyridine-2-yl}-1H-pyrazole-4-carboxylic acid] | 1 to 5 nM
Cc1nn(-c2cc(C#N)c(-c3ccccc3)cn2)c(C)c1C(=O)O [Compound 28, 1-(4-cyano-5-phenylpyridin-2-yl)-3,5-dimethyl-1H-pyrazole-4-carboxylic acid] | ≥ 10 nM
N#Cc1cc(-n2cc(C(=O)O)cn2)ncc1-c1cccc([N+](=O)[O-])c1 [Compound 72, 1-[4-cyano-5-(3-nitrophenyl)pyridin-2-yl]-1H-pyrazole-4-carboxylic acid] | ≥ 10 nM
COc1ccc(-c2cnc(-n3cc(C(=O)O)cn3)cc2C#N)cc1 [Compound 2, 1-[4-cyano-5-(4-methoxyphenyl)pyridin-2-yl]-1H-pyrazole-4-carboxylic acid] | 1 to 5 nM
N#Cc1cc(-n2cc(C(=O)O)cn2)ncc1-c1ccc(-c2ccccc2)cc1 [Compound 65, 1-[4-cyano-5-(4-phenylphenyl)pyridine-2-yl]-1H-pyrazole-4-carboxyic acid] | 1 to 5 nM
N#Cc1nc(-n2cc(C(=O)O)cn2)ccc1-c1ccccc1F [Compound 86, 1-[6-cyano-5-(2-fluorophenyl)pyridin-2-yl]-1H-pyrazole-4-carboxylic acid] | 5 to 10 nM
Cc1ccc(F)c(-c2cnc(-n3cc(C(=O)O)c(N)n3)cc2C#N)c1 [Compound 104, 3-amino-1-[4-cyano-5-(2-fluoro-5-methylphenyl)pyridin-2-yl]-1H-pyrazole-4-carboxylic acid] | 1 to 5 nM
N#Cc1cc(-n2cc(C(=O)O)c(N)n2)ncc1-c1ccccc1F [Compound 98, 3-amino-1-[4-cyano-5-(2-fluorophenyl)pyridin-2-yl]-1H-pyrazole-4-carboxylic acid] | 1 to 5 nM
Cc1cccc(-c2ccc(-n3cc(C(=O)O)cn3)nc2C#N)c1 [Compound 92, 1-[6-cyano-5-(3-methylphenyl)pyridin-2-yl]-1H-pyrazole-4-carboxylic acid] | ≥ 10 nM
N#Cc1cc(-n2cc(C(=O)O)cn2)cnc1-c1cccc(F)c1F [Compound 81, 1-[5-cyano-6-(2,3-difluorophenyl)pyridin-3-yl]-1H-pyrazole-4-carboxylic acid] | ≥ 10 nM

SMILES | IC50
Cc1ccc(F)c(-c2ncc(-n3cc(C(=O)O)cn3)cc2C#N)c1 [Compound 79, 1-[5-cyano-6-(2-fluoro-5-methylphenyl)pyridin-3-yl]-1H-pyrazole-4-carboxylic acid] | ≥ 10 nM
COc1cccc(F)c1-c1ccc(-n2cc(C(=O)O)cn2)nc1C#N [Compound 96, 1-[6-cyano-5-(2-fluoro-6-methoxyphenyl)pyridin-2-yl]-1H-pyrazole-4-carboxylic acid] | ≥ 10 nM
N#Cc1cc(-n2cc(C(=O)O)cn2)ncc1-c1ccc(Cl)cc1 [Compound 15, 1-[4-cyano-5-(4-chlorophenyl)pyridin-2-yl]-1H-pyrazole-4-carboxylic acid] | 1 to 5 nM
COc1cccc(F)c1-c1cnc(-n2cc(C(=O)O)cn2)cc1C#N [Compound 18, 1-[4-cyano-5-(2-fluoro-6-methoxyphenyl)pyridin-2-yl]-1H-pyrazole-4-carboxylic acid] | 5 to 10 nM
N#Cc1cc(-n2cc(C(=O)O)cn2)ncc1-c1ccc(F)cc1F [Compound 32, 1-[4-cyano-5-(2,4-difluorophenyl)pyridin-2-yl]-1H-pyrazole-4-carboxylic acid] | 1 to 5 nM
CCOc1cccc(-c2ccc(-n3cc(C(=O)O)cn3)nc2C#N)c1 [Compound 93, 1-[6-cyano-5-(3-ethoxyphenyl)pyridin-2-yl]-1H-pyrazole-4-carboxylic acid] | ≥ 10 nM
Cc1ccc(-c2cnc(-n3cc(C(=O)O)cn3)cc2C#N)cc1F [Compound 39, 1-[4-cyano-5-(3-fluoro-4-methylphenyl)pyridin-2-yl]-1H-pyrazole-4-carboxylic acid] | 1 to 5 nM
Cc1ccc(-c2cnc(-n3cc(C(=O)O)cn3)cc2C#N)cc1 [Compound 14, 1-[4-cyano-5-(4-methylphenyl)pyridin-2-yl]-1H-pyrazole-4-carboxylic acid] | 1 to 5 nM
N#Cc1cc(-n2cc(C(=O)O)cn2)ncc1-c1ccc(OC(F)(F)F)cc1 [Compound 44, 1-{4-cyano-5-[4-(trifluoromethoxy)phenyl]pyridin-2-yl}-1H-pyrazole-4-carboxylic acid] | 1 to 5 nM
Cc1cccc(-c2cnc(-n3cc(C(=O)O)c(N)n3)cc2C#N)c1 [Compound 101, 3-amino-1-[4-cyano-5-(3-methylphenyl)pyridin-2-yl]-1H-pyrazole-4-carboxylic acid] | 1 to 5 nM
N#Cc1cc(-n2cc(C(=O)O)cn2)ncc1-c1cccc(F)c1F [Compound 20, 1-[4-cyano-5-(2,3-difluorophenyl)pyridin-2-yl]-1H-pyrazole-4-carboxylic acid] | 1 to 5 nM
N#Cc1cc(-n2cc(C(=O)O)cn2)ncc1-c1ccc(N2CCOCC2)cc1 [Compound 64, 1-{4-cyano-5-[4-(morpholine-4-yl)phenyl]pyridine-2-yl}-1H-pyrazole-4-carboxylic acid] | 1 to 5 nM
Cc1ccsc1-c1cnc(-n2cc(C(=O)O)cn2)cc1C#N [Compound 22, 1-[4-cyano-5-(3-methylthiophen-2-yl)pyridin-2-yl]-1H-pyrazole-4-carboxylic acid] | 1 to 5 nM
CC(C)Oc1ccc(-c2cnc(-n3cc(C(=O)O)cn3)cc2C#N)cc1 [Compound 52] | 1 to 5 nM
COc1ccc(F)c(-c2cnc(-n3cc(C(=O)O)c(N)n3)cc2C#N)c1 [Compound 107, 3-amino-1-[4-cyano-5-(2-fluoro-5-methoxyphenyl)pyridine-2-yl]-1H-pyrazole-4-carboxylic acid] | 1 to 5 nM
CCOc1cccc(F)c1-c1cnc(-n2cc(C(=O)O)cn2)cc1C#N [Compound 17, 1-[4-cyano-5-(2-ethoxy-6-fluorophenyl)pyridin-2-yl]-1H-pyrazole-4-carboxylic acid] | 5 to 10 nM
N#Cc1cc(-n2cc(C(=O)O)cn2)ncc1-c1cncc(F)c1 [Compound 60, 1-[4-cyano-5-(5-fluoropyridin-3-yl)pyridin-2-yl]-1H-pyrazole-4-carboxylic acid] | ≥ 10 nM
N#Cc1cc(-n2cc(C(=O)O)cn2)ncc1-c1cccc(C(F)(F)F)c1 [Compound 45, 1-{4-cyano-5-[3-(trifluoromethyl)phenyl]pyridin-2-yl}-1H-pyrazole-4-carboxylic acid] | 5 to 10 nM
N#Cc1cc(-n2cc(C(=O)O)cn2)ncc1-c1ccc(F)c(Cl)c1 [Compound 40, 1-[4-cyano-5-(3-chloro-4-fluorophenyl)pyridin-2-yl]-1H-pyrazole-4-carboxylic acid] | 5 to 10 nM
